In ChEMBL document CHEMBL5696442, “Discovery of type II inhibitors of TGFβ-activated kinase 1 (TAK1) and mitogen-activated protein kinase kinase kinase kinase 2 (MAP4K2)” (J Med Chem, 2015):

What was measured:
[1] = molecular target: T1, Mitogen-activated protein kinase kinase kinase 3 (Homo sapiens) (UniProt Q99759); assay: Inhibition of MAP3K3 (unknown origin) at 10 uM by Ambit Kinomescan binding assay relative to control
T1 sequence (whole entry): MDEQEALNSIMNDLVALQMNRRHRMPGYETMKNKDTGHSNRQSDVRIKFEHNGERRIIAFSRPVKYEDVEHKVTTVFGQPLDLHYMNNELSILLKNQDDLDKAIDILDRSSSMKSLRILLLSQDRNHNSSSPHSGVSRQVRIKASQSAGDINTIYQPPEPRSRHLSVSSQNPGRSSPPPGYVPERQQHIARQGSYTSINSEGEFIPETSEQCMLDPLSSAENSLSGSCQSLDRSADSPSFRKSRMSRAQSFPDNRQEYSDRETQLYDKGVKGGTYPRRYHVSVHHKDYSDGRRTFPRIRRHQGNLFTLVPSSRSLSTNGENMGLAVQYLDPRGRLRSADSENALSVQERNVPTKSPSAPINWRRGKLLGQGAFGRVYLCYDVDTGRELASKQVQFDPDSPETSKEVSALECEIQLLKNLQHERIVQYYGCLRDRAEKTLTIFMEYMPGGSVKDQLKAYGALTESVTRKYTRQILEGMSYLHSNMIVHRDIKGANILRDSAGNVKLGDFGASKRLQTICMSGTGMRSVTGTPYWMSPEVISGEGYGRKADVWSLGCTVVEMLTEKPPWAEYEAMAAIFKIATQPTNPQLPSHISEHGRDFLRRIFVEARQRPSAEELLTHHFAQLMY

[2] = molecular target: T2, Eukaryotic elongation factor 2 kinase (Homo sapiens) (UniProt O00418); assay: Inhibition of eEF2K ATP labeling site harbouring YIKYNSNSGFVR in human A-375 cells at 5 uM by KiNativ Profiling analysis relative to control; type: cell-based
T2 sequence (whole entry): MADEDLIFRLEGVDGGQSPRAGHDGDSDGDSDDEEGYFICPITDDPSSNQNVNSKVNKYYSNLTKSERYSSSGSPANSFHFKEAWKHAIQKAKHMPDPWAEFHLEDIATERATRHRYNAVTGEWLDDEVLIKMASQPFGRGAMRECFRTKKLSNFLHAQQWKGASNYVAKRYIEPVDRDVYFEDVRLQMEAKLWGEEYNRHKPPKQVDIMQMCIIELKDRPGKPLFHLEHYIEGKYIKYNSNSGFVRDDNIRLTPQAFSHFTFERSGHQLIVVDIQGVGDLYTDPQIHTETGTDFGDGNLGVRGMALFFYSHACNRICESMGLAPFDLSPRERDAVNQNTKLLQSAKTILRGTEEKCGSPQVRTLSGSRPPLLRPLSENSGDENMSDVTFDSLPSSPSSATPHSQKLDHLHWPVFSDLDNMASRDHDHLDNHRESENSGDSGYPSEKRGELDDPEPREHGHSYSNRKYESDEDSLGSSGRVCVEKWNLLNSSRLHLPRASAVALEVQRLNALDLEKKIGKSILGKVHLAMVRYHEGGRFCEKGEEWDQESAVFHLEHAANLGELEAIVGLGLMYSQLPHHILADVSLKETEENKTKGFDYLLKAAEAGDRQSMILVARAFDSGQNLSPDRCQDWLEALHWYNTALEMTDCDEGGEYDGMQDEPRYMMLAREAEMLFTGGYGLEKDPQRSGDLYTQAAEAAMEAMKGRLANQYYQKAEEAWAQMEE

[3] = molecular target: Serine/threonine-protein kinase/endoribonuclease IRE1 (Homo sapiens) (UniProt O75460); assay: Inhibition of IRE1 Lys2 labeling site in human A-375 cells at 5 uM by KiNativ Profiling analysis relative to control; type: cell-based
[4] = molecular target: Ribosomal protein S6 kinase alpha-3 (Homo sapiens) (UniProt P51812); assay: Inhibition of RSK2 Domain 1 ACT labeling site harbouring LTDFGLSKESIDHEK in human Huh-7 cells at 10 uM by KiNativ Profiling analysis relative to control; type: cell-based
[5] = molecular target: Mitogen-activated protein kinase kinase kinase kinase 4 (Homo sapiens, UniProt O95819); assay: Inhibition of ZC1/HGK K1 labeling site harbouring TGQLAAIKVMDVTEDEEEEIKLEINMLK in human Huh-7 cells at 1 uM by KiNativ Profiling analysis relative to control; type: cell-based
[6] = molecular target: Tyrosine-protein kinase Fyn (Homo sapiens) (UniProt P06241); assay: Inhibition of FYN (unknown origin) at 10 uM by Ambit Kinomescan binding assay relative to control; values are per cent of control
[7] = molecular target: Tyrosine-protein kinase Yes (Homo sapiens) (UniProt P07947); assay: Inhibition of YES (unknown origin) at 10 uM by Ambit Kinomescan binding assay relative to control; values are per cent of control
[8] = molecular target: Atypical kinase COQ8A, mitochondrial (Homo sapiens) (UniProt Q8NI60); assay: Inhibition of ADCK3 (unknown origin) at 1 uM by Ambit Kinomescan binding assay relative to control
[9] = molecular target: Cyclin-dependent kinase 13 (Homo sapiens) (UniProt Q14004); assay: Inhibition of CDC2L5 (unknown origin) at 1 uM by Ambit Kinomescan binding assay relative to control
[10] = molecular target: Phosphatidylinositol 4-kinase beta (Homo sapiens) (UniProt Q9UBF8); assay: Inhibition of PI4KB ATP labeling site harbouring VPHTQAVVLNSKDKAPYLIYVEVLECENFDTTSVPAR in human A-375 cells at 5 uM by KiNativ Profiling analysis relative to control; type: cell-based
Chain of Phosphatidylinositol 4-kinase beta (Homo sapiens) (Q9UBF8 2-816 limits assumed): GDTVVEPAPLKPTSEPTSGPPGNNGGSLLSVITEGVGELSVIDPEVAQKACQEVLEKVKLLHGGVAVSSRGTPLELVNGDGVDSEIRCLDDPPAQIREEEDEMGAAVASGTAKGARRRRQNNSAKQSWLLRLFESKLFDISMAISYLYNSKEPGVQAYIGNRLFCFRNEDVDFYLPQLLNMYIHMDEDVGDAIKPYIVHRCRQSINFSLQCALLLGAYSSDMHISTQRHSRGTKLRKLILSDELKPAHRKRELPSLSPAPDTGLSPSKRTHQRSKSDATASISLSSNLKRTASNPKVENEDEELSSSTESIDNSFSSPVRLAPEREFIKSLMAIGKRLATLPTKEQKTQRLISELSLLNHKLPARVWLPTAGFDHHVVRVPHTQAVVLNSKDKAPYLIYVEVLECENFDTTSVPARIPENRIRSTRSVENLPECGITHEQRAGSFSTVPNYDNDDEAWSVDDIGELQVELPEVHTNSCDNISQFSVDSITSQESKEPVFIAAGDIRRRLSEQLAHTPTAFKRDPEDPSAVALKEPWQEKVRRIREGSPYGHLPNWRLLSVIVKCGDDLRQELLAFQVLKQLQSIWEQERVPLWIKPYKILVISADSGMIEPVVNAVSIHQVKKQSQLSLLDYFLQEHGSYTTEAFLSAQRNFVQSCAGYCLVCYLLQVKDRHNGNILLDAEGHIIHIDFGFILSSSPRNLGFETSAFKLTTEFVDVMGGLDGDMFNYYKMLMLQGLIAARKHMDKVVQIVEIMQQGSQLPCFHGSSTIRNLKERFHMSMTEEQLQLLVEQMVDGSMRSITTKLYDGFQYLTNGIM

Chain of Mitogen-activated protein kinase kinase kinase kinase 4 (O95819 2-1239 limits assumed): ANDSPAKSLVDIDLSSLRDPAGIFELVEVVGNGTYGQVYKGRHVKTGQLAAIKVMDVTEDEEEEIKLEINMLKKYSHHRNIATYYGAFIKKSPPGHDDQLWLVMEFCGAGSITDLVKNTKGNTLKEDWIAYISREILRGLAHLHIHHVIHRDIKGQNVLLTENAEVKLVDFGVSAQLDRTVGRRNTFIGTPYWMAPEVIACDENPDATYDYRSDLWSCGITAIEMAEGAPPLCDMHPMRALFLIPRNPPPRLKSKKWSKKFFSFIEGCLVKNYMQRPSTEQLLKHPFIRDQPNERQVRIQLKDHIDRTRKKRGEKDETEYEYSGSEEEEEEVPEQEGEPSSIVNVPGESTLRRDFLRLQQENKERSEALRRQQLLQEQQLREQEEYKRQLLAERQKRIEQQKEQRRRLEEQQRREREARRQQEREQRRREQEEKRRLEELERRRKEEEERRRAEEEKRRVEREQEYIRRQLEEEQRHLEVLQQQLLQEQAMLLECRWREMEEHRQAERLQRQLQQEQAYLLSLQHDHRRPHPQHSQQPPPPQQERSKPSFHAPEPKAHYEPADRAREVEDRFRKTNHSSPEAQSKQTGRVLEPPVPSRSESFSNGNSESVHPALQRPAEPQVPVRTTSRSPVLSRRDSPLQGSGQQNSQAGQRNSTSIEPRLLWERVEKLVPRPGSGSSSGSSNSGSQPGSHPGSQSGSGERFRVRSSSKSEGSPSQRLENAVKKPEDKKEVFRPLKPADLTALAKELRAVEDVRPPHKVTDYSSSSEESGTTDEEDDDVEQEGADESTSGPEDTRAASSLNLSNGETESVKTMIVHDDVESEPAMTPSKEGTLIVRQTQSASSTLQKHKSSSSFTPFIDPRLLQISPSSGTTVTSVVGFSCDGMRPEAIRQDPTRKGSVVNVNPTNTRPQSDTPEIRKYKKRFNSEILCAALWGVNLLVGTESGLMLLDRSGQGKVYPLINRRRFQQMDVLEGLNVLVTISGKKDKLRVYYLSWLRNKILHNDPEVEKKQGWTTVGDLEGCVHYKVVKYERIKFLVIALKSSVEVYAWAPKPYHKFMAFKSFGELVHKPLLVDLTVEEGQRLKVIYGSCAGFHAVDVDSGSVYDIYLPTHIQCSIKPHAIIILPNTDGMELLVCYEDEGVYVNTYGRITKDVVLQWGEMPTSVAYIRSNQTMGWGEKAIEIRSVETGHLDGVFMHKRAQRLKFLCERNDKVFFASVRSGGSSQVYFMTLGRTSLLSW
Chain of Atypical kinase COQ8A, mitochondrial (Homo sapiens) (Q8NI60 163-647 limits assumed): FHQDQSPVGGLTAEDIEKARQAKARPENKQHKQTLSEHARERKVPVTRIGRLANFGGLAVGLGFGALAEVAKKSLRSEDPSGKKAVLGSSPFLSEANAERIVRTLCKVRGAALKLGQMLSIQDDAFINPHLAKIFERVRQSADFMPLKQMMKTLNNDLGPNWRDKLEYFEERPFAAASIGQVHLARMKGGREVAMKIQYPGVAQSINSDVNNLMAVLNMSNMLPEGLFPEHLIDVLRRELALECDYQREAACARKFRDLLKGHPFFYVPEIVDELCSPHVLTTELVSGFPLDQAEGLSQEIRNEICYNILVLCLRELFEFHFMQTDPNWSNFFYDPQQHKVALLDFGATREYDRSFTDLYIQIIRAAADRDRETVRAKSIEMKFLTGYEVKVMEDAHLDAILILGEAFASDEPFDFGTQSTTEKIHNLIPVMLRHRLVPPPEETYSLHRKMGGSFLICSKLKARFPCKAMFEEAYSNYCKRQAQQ
Chain of Ribosomal protein S6 kinase alpha-3 (Homo sapiens) (P51812 whole entry, the tested form may be a part): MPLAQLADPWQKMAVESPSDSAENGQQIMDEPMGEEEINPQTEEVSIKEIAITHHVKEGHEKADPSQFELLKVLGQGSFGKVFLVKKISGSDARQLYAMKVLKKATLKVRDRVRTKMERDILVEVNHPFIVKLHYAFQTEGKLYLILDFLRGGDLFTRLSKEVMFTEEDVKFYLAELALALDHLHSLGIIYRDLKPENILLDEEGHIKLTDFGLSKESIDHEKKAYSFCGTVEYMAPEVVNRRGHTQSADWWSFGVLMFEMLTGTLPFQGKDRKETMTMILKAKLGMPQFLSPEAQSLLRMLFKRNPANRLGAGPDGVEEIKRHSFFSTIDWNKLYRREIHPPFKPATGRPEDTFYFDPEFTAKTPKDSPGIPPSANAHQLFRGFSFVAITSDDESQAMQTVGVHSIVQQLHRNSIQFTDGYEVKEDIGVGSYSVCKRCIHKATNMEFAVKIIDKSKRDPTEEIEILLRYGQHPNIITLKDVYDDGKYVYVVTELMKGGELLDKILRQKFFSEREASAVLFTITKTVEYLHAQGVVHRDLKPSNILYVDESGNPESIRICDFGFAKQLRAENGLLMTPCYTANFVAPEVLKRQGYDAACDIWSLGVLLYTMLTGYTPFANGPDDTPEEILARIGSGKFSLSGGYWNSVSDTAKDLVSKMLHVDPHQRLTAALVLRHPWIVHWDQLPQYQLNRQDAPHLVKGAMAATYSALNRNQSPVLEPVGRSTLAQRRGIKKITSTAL
Chain of Cyclin-dependent kinase 13 (Homo sapiens) (Q14004 whole entry, looked up): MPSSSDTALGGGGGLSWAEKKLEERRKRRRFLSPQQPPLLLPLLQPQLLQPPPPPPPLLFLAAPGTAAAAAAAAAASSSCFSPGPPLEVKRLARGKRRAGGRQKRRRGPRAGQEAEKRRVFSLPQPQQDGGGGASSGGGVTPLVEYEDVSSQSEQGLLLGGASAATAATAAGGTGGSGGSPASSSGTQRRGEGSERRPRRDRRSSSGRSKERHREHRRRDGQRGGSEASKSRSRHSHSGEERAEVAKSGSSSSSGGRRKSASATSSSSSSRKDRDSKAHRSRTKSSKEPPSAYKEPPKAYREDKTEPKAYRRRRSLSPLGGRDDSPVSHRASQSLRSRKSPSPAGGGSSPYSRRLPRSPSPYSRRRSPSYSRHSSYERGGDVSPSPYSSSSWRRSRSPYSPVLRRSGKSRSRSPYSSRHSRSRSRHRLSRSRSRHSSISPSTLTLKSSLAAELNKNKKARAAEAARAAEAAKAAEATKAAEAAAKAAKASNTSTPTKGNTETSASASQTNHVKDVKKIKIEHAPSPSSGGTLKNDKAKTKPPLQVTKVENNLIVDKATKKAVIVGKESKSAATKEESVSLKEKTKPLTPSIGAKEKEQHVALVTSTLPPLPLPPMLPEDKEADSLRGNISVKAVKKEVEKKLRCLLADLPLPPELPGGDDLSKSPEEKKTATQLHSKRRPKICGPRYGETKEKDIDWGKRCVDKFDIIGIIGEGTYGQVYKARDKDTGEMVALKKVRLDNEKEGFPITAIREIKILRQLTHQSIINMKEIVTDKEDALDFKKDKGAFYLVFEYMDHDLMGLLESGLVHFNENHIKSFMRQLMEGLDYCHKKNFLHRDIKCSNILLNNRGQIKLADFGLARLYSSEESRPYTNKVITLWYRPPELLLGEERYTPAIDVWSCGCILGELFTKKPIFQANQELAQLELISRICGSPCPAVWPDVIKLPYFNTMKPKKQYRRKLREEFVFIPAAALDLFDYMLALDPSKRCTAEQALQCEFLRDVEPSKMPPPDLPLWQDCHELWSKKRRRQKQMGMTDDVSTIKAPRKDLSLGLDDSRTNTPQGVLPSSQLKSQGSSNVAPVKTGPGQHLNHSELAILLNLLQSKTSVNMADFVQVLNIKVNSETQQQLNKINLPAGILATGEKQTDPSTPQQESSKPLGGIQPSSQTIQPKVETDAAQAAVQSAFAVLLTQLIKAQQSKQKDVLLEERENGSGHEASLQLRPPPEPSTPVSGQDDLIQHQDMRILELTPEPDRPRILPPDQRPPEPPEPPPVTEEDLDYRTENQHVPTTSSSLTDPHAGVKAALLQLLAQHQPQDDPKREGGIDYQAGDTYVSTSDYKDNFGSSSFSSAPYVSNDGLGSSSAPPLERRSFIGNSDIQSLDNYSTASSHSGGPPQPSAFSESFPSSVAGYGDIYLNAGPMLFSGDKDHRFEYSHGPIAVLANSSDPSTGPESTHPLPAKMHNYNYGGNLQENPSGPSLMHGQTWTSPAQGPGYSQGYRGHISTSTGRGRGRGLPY

SMILES	inhibition [1] [%]	inhibition [2] [%]	inhibition [3] [%]	inhibition [4] [%]	inhibition [5] [%]	percent of control [6] [%]	residual activity [7] [%]	inhibition [8] [%]	inhibition [9] [%]	inhibition [10] [%]
CCN1CCN(Cc2ccc(NC(=O)c3ccc(C)c(Oc4ccnc5[nH]ccc45)c3)cc2C(F)(F)F)CC1	12	-2.4	-5.7	-1.5	7.6	1.6	1.6			
CCN1CCN(Cc2ccc(NC(=O)c3ccc(C)c(/C=C/c4cnc5[nH]ccc5c4OC)c3)cc2C(F)(F)F)CC1								100	100	14.1
